Article PMC2850882, “Two additive mechanisms impair the differentiation of 'substrate-selective' p38 inhibitors from classical p38 inhibitors in vitro” (BMC Systems Biology, 2010)
Read-outs that look alike come from different tables or passages of the source. Values belong to the compound of their own block, whether it stands above or below them.

What was measured:
p38 = molecular target: T1, p38 (Homo sapiens, UniProt Q16539); experiment: ATP-p38 affinity (in-house measurement); format: binding; conditions: kinetic model parameter
T1 construct: made in house
T1 sequence (Q16539 whole entry): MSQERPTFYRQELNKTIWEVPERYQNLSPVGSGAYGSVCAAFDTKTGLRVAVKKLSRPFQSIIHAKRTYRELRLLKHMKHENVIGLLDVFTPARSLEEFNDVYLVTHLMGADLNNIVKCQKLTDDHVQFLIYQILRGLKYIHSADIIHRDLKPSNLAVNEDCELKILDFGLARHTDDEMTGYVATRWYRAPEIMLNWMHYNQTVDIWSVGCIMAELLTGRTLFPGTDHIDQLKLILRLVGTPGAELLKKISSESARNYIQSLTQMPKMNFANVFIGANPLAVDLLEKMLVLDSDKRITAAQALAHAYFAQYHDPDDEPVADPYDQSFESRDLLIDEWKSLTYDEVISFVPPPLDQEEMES
Description: In order to aid in the interpretation of the dual substrate assay, we developed a simple kinetic model of p38-mediated phosphorylation of two substrates: ATF2 and MK2 (diagrammed in Figure 3a). Since p38 has a single kinase domain and ATP binding site, we assumed that p38 can only act on a single substrate at a time. For each substrate, a random-order bi-substrate (substrate + ATP) reaction mechanism was assumed. Active p38 can reversibly bind ATP, with affinity KD, ATP and ATP binding is independent of further complex formation. Active p38 (ATP bound and unbound) can reversibly bind to ATF2 or MK2 to form complexes p38-ATF2 or p38-MK2, respectively. Each complex undergoes an irreversible catalysis step to form products phospho-ATF2 (and ADP) or phospho-MK2 (and ADP). The model equations are a set of ordinary differential equations written in terms of mass-action kinetics. For the case where only one substrate is present, this model reduces to the single substrate assay.

[1] = molecular target: T2, p38 (phosphorylation of MK2) (Homo sapiens, UniProt Q16539); experiment: Single substrate assay, phospho-MK2 readout (MSD); format: biochemical; conditions: MK2 only; measured at 30 min; ± standard error
T2 construct: made in house
T2 sequence (Q16539 whole entry): as above
Description: (§1) In each case, the degree of phosphorylation serves as a readout of the activity of p38 for its respective substrate.
(§2) The ability of active p38 to phosphorylate ATF2, MK2 or both was tested in a biochemical assay. Reagents were added in the following order: compound, substrate(s), ATP, p38 for a final reaction volume of 40 ul in low protein binding 96-well plates (Immulon-1B). […] Reactions were performed in buffer containing 20 mM HEPES pH 7.5, 10 mM MgCl2, 0.01% BSA, 0.0005% Tween-20, 2% DMSO and 0.1 mM DTT. Reactions were quenched with 40 ul of buffer containing 50 mM HEPES pH 7.5, 30 mM EDTA following different incubation times. Phosphorylated ATF2 and phosphorylated MK2 were assayed as described below. Compounds were diluted in DMSO (Sigma).
Phospho-MK2 was measured with the MSD platform using an in-house assay. […] Plates were blocked with 3% MSD Blocker A in MSD Tris Wash Buffer for at least 1 hr at RT. […] Plates were incubated for > 3 hr at RT, washed 4× with 150 ul MSD Tris Wash Buffer and read on the Meso-Scale Discovery Sector imager using 2× MSD Read Buffer T.

[2] = molecular target: T3, p38 (phosphorylation of ATF2) (Homo sapiens, UniProt Q16539); experiment: Single substrate assay, phospho-ATF2 readout (MSD); format: biochemical
T3 construct: made in house
T3 sequence (Q16539 whole entry): as above
Description: as §1, §2
Phospho-ATF2 was measured with the Meso-Scale Discovery (MSD) platform using an in-house assay. […] Plates were blocked with 3% MSD Blocker A in MSD Tris Wash Buffer for at least 1 hr at RT. […] Plates were incubated for > 3 hr at RT, washed 4× with 150 ul MSD Tris Wash Buffer and read on the Meso-Scale Discovery Sector imager using 2× MSD Read Buffer T.

[3] = molecular target: T4, p38 (phosphorylation of MK2 in presence of ATF2) (Homo sapiens, UniProt Q16539); experiment: ATF2/MK2 dual substrate assay, phospho-MK2 readout (MSD); format: biochemical; conditions: 0.5 nM p38, 100 nM ATF2, 10 nM MK2, 50 uM ATP; measured at 30 min; ± standard error
T4 construct: made in house
T4 sequence (Q16539 whole entry): as above
Description: (§3) To this end, we designed a dual-substrate assay in which p38 could simultaneously phosphorylate MK2 and/or ATF2. The assay conditions chosen were 0.5 nM p38, 100 nM ATF2, 10 nM MK2, 50 uM ATP. As with the single substrate assay, MK2 phosphorylation was assayed at 30 min and ATF2 phosphorylation was assayed at 120 min to ensure that each measurement was within the linear range of the assay. ATP levels were measured at the end of the assay, to confirm that it was not being depleted.
as §2
Phospho-MK2 was measured with the MSD platform using an in-house assay. […] Plates were incubated for > 3 hr at RT, washed 4× with 150 ul MSD Tris Wash Buffer and read on the Meso-Scale Discovery Sector imager using 2× MSD Read Buffer T.

[4] = molecular target: T5, p38 (phosphorylation of ATF2 in presence of MK2) (Homo sapiens, UniProt Q16539); experiment: ATF2/MK2 dual substrate assay, phospho-ATF2 readout (MSD); format: biochemical
T5 construct: made in house
T5 sequence (Q16539 whole entry): as above
Description: as §3, §2
Phospho-ATF2 was measured with the Meso-Scale Discovery (MSD) platform using an in-house assay. […] Plates were incubated for > 3 hr at RT, washed 4× with 150 ul MSD Tris Wash Buffer and read on the Meso-Scale Discovery Sector imager using 2× MSD Read Buffer T.

[5] = molecular target: p38-alpha (MK2 phosphorylation); design: method as in PMID 15362850; conditions: read-out: KI, app, p38-alpha-dependent MK2 phosphorylation; cited from earlier work
[6] = molecular target: p38-alpha (ATF-2 phosphorylation); design: method as in PMID 15362850; conditions: read-out: KI, app, phosphorylation of ATF-2; cited from earlier work
p38-alpha (Homo sapiens) [7] = molecular target: p38-alpha (Homo sapiens) (UniProt Q16539); conditions: cited from earlier work
Chain of p38-alpha (Homo sapiens) (Q16539 2-360): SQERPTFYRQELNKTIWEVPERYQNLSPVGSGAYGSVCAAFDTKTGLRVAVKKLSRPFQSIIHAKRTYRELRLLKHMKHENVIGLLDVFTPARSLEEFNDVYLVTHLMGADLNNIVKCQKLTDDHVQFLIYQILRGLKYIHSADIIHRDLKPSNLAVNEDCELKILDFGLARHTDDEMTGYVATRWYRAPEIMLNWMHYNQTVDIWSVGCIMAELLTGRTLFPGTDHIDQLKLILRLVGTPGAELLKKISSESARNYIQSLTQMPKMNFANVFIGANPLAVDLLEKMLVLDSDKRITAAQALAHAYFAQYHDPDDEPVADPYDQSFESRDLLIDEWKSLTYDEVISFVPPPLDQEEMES

p38-alpha (Homo sapiens) [8] = molecular target: p38-alpha (Homo sapiens) (UniProt Q16539); conditions: cited from earlier work; remark: listed apart in the source

Chain of ATF2 (P15336 whole entry): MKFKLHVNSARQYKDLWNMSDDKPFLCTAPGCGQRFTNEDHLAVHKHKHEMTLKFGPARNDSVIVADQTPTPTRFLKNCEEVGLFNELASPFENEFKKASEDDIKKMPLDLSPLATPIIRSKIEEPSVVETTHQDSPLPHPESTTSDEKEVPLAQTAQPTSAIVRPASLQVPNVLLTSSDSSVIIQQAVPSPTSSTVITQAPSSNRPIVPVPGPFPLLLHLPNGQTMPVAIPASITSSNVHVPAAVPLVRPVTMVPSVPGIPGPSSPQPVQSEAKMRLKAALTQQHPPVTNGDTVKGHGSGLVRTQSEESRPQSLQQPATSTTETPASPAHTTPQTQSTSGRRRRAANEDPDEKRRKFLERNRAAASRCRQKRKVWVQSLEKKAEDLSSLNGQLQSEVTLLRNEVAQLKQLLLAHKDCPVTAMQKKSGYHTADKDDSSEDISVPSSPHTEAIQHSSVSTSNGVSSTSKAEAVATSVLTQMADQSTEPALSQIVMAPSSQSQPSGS
Chain of MK2 (P49137 whole entry): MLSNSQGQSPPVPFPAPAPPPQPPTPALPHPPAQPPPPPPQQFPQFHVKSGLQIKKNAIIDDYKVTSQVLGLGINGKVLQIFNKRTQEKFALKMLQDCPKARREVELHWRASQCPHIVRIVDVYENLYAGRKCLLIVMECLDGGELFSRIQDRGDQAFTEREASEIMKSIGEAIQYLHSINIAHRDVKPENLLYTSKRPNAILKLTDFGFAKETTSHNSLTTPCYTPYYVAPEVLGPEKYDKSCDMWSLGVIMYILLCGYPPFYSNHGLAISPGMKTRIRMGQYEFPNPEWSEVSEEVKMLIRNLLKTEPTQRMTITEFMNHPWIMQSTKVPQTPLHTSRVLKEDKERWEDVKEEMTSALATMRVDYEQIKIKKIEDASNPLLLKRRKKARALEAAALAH

Compound: Nc1ncnc2c1ncn2[C@@H]1O[C@H](COP(=O)(O)OP(=O)(O)OP(=O)(O)O)[C@@H](O)[C@H]1O [ATP]
Kd (p38): 67 µM

IC50 [1]: 23.4 ± 1.9 µM
IC50 ([2]; ATF2 only, measured at 120 min, ± standard error): > 400 µM
substrate selectivity = (ATF2 IC50)/(MK2 IC50), single substrate assay ([2]; ratio of single substrate assay IC50s): >17
IC50 [3]: 41 ± 2.2 µM
IC50 ([4]; 0.5 nM p38, 100 nM ATF2, 10 nM MK2, 50 uM ATP, measured at 120 min, ± standard error): 27 ± 16 µM
substrate selectivity = (ATF2 IC50)/(MK2 IC50), dual substrate assay ([4]; ratio of dual substrate assay IC50s): 0.66
Compound: O=C(CCCc1ccc(-c2ccccc2F)cc1)Nc1ccc(O)cc1 [CMPD1]
Ki [5]: 0.33 µM
Ki [6]: > 20 µM

Compound: ATF2 (from UniProt P15336)
Kd (p38-alpha (Homo sapiens) [7]): 38 µM

Compound: MK2 (from UniProt P49137)
Kd (p38-alpha (Homo sapiens) [8]): 0.02 µM
